Source: ChEMBL document CHEMBL1139272, “Beyond the MEK-pocket: can current MEK kinase inhibitors be utilized to synthesize novel type III NCKIs? Does the MEK-pocket exist in kinases other than MEK?” (Bioorg Med Chem Lett, 2009)

What was measured:
[1] = target: Tyrosine-protein kinase ABL1 (Homo sapiens, UniProt P00519); assay: Binding affinity to ABL
[2] = target: Fibroblast growth factor receptor 1 (Homo sapiens, UniProt P11362); assay: Binding affinity to FGFR1
Ephrin type-A receptor 2 [3] = target: T1, Ephrin type-A receptor 2 (Homo sapiens, UniProt P29317); assay: Binding affinity to ECK
Aurora kinase A = target: T2, Aurora kinase A (Homo sapiens, UniProt O14965); assay: Binding affinity to Aurora A
T2 sequence (O14965 whole entry): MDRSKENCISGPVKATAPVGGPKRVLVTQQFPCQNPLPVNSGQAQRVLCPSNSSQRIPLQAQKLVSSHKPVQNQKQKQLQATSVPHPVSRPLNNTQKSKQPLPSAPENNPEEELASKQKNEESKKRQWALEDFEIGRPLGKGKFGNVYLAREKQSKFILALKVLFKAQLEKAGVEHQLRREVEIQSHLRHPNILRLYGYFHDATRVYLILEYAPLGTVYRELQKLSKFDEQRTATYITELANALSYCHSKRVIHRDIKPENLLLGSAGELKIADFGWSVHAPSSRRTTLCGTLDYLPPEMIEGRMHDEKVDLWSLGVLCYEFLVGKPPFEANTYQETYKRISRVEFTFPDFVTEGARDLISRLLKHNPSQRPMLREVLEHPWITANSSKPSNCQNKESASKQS

[4] = target: Vascular endothelial growth factor receptor 2 (Homo sapiens, UniProt P35968); assay: Binding affinity to VEGFR2
[5] = target: Dual specificity protein kinase CLK1 (Homo sapiens, UniProt P49759); assay: Binding affinity to CLK1
[6] = target: Protein kinase C beta type (Homo sapiens, UniProt P05771); assay: Binding affinity to PKC beta2
[7] = Binding affinity to p38
[8] = target: Proto-oncogene tyrosine-protein kinase Src (Homo sapiens, UniProt P12931); assay: Binding affinity to SRC
[9] = target: Tyrosine-protein kinase BTK (Homo sapiens, UniProt Q06187)
[10] = target: Mitogen-activated protein kinase kinase kinase 9 (Homo sapiens, UniProt P80192); assay: Binding affinity to MAP3K9
[11] = target: T3, Serine/threonine-protein kinase 3 (Homo sapiens, UniProt Q13188)
T3 sequence (Q13188 whole entry): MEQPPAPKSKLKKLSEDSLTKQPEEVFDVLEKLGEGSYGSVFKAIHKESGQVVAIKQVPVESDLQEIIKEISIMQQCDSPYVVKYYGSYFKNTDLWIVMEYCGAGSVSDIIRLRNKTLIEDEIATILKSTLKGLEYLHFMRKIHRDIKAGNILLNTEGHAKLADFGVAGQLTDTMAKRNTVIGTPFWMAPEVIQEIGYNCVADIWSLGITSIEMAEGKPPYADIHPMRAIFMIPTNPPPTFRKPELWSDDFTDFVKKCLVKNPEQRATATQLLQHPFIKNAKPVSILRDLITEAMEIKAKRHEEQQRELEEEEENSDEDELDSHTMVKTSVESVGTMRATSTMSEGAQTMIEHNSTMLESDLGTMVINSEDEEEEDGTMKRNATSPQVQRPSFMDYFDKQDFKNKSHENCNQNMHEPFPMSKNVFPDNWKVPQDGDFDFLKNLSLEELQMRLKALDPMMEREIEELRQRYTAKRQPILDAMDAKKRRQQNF

[12] = target: Tyrosine-protein kinase Lck (Homo sapiens, UniProt P06239)
[13] = target: T4, Serine/threonine-protein kinase Sgk1 (Homo sapiens) (UniProt O00141); assay: Binding affinity to SGK at 10 uM
T4 sequence (whole entry): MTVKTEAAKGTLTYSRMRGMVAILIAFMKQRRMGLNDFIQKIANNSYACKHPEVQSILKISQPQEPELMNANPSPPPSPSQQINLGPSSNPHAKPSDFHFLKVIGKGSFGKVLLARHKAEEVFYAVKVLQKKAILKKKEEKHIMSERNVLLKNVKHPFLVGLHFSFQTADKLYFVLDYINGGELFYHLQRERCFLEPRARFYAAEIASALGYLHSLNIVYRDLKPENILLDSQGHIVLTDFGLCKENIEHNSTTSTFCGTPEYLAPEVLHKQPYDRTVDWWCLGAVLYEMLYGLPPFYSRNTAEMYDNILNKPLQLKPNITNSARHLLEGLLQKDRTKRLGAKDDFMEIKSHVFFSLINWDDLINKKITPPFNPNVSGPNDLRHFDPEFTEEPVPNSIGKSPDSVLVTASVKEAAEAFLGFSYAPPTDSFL

[14] = Binding affinity to GSK3 at 10 uM
[15] = target: Serine/threonine-protein kinase PAK 4 (Homo sapiens) (UniProt O96013); assay: Binding affinity to PAK4 at 10 uM
Ephrin type-A receptor 2 [16] = target: T1, Ephrin type-A receptor 2; assay: Binding affinity to EPHA2 at 10 uM
[17] = Binding affinity to p38 at 10 uM
[18] = target: High affinity nerve growth factor receptor (Homo sapiens) (UniProt P04629); assay: Binding affinity to TrkA at 10 uM
[19] = target: MAP kinase-activated protein kinase 2 (Homo sapiens) (UniProt P49137); assay: Binding affinity to MK2 at 10 uM
[20] = target: T5, Aurora kinase A (Homo sapiens) (UniProt O14965); assay: Binding affinity to Aurora A at 10 uM
T5 sequence (whole entry): T2 sequence (O14965 whole entry)

[21] = Binding affinity to PKC at 10 uM
[22] = Binding affinity to NEK at 10 uM
[23] = Binding affinity to MEK

Chain of Proto-oncogene tyrosine-protein kinase Src (P12931 2-536 limits assumed): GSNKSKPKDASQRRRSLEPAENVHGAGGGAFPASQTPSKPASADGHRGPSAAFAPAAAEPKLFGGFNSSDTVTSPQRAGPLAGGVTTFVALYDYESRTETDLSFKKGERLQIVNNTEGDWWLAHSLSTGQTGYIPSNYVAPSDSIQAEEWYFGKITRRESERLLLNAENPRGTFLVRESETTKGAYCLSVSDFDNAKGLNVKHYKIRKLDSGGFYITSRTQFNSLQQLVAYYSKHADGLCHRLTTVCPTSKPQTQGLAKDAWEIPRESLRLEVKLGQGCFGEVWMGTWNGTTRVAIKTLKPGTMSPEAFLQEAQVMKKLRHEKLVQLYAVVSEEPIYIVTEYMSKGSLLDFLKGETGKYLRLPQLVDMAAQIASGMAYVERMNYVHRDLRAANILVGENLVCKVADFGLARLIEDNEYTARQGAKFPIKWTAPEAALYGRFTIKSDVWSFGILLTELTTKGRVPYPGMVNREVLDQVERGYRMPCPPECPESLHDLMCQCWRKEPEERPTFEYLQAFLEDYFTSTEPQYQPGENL
Chain of Tyrosine-protein kinase ABL1 (P00519 whole entry): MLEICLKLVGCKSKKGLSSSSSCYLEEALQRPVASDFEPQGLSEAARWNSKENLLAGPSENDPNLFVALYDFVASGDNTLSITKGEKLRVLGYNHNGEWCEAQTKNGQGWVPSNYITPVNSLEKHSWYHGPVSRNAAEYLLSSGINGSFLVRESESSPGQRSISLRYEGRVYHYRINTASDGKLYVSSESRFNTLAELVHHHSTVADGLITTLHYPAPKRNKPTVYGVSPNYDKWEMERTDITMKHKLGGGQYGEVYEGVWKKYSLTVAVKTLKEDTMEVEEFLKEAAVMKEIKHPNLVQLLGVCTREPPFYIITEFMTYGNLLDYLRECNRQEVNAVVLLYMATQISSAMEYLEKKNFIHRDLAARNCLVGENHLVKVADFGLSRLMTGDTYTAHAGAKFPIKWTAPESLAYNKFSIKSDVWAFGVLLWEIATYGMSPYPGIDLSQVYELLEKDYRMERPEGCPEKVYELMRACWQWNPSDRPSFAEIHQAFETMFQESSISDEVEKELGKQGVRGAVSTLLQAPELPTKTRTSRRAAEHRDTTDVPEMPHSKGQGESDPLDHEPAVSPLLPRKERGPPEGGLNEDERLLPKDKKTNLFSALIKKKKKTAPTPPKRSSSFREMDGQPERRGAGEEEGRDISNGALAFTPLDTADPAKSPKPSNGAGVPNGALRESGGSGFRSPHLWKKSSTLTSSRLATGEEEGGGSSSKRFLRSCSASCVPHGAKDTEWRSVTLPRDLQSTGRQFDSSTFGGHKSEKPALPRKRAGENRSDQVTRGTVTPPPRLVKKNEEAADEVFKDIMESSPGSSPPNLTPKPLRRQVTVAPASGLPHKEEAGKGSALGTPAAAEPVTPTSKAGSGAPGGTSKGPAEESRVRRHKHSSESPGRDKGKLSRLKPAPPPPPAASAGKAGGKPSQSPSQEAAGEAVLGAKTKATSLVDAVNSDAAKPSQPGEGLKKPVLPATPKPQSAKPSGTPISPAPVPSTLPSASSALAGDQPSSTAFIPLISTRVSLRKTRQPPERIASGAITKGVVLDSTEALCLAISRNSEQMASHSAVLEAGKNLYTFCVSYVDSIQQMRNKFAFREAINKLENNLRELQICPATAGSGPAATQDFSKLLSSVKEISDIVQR
Chain of High affinity nerve growth factor receptor (Homo sapiens) (P04629 33-796 limits assumed): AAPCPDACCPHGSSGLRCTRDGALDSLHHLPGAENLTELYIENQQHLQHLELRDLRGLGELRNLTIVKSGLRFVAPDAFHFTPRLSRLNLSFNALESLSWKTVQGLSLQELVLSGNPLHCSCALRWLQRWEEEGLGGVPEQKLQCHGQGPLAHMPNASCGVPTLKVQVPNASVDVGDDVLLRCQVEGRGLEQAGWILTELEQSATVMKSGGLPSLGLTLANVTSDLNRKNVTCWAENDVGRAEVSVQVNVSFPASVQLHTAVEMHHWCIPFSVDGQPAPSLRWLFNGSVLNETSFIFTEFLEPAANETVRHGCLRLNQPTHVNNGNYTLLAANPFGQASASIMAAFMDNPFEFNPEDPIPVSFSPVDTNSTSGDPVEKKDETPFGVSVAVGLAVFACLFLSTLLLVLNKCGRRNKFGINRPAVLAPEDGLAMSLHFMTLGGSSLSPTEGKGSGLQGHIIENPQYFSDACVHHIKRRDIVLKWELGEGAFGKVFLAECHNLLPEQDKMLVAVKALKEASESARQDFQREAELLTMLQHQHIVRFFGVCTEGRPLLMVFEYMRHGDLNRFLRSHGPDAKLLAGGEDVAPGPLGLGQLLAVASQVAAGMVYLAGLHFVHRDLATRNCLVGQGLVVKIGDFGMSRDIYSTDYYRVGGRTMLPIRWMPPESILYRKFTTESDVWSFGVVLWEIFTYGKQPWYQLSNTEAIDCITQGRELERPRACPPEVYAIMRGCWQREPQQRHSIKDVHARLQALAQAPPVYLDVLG
T1 sequence (P29317 whole entry): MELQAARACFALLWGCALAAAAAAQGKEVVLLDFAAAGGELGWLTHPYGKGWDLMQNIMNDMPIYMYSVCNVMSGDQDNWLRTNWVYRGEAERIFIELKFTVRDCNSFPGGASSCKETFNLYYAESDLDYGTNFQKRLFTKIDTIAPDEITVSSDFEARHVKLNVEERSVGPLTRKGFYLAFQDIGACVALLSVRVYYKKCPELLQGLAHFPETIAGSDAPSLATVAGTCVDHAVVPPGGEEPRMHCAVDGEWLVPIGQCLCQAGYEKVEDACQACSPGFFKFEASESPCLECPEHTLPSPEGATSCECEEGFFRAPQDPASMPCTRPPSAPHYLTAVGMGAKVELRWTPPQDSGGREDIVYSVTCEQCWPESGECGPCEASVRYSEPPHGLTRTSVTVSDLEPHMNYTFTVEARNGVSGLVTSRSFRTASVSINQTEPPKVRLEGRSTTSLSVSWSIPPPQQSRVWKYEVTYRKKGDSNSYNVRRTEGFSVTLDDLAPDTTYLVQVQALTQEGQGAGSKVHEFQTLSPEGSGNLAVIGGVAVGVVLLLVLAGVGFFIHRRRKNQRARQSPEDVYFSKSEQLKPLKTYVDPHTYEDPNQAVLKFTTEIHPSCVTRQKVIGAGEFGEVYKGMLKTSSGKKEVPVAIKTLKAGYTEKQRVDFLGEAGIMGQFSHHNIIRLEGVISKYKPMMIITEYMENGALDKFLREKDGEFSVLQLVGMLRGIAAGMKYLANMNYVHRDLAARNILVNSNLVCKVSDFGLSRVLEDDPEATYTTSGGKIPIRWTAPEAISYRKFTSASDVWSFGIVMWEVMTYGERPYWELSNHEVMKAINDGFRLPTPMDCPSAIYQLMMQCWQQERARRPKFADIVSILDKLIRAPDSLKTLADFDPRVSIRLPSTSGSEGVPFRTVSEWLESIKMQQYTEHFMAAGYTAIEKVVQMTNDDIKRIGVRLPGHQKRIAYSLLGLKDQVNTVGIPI
Chain of Mitogen-activated protein kinase kinase kinase 9 (P80192 whole entry): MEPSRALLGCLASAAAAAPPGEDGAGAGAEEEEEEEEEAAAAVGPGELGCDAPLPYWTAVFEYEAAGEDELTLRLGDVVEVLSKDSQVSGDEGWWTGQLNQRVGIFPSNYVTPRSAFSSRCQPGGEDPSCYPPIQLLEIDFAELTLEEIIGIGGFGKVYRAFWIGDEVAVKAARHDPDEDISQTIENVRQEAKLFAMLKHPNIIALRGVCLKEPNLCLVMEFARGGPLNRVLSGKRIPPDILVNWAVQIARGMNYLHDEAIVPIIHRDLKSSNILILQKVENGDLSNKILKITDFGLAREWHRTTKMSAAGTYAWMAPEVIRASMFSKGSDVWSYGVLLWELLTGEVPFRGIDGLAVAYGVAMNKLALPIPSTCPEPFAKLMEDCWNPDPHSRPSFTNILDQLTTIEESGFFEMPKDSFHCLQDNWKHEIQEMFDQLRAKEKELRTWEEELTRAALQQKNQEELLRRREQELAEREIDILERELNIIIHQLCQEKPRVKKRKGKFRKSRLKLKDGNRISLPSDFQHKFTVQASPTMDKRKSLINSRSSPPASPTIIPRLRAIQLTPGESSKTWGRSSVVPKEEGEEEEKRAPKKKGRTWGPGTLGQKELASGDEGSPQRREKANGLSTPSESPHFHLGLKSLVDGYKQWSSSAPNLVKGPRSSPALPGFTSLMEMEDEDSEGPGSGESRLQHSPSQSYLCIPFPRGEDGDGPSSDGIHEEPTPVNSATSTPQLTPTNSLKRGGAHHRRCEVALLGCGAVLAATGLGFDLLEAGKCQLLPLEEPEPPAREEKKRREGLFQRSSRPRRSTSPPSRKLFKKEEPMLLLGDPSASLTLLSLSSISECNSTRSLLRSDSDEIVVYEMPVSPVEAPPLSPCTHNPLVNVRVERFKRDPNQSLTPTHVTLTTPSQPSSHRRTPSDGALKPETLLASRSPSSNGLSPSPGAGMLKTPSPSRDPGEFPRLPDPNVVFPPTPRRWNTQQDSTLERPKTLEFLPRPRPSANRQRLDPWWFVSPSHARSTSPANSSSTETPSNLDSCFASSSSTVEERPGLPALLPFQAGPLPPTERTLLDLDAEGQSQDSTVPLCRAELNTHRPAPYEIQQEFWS
Chain of Dual specificity protein kinase CLK1 (P49759 whole entry): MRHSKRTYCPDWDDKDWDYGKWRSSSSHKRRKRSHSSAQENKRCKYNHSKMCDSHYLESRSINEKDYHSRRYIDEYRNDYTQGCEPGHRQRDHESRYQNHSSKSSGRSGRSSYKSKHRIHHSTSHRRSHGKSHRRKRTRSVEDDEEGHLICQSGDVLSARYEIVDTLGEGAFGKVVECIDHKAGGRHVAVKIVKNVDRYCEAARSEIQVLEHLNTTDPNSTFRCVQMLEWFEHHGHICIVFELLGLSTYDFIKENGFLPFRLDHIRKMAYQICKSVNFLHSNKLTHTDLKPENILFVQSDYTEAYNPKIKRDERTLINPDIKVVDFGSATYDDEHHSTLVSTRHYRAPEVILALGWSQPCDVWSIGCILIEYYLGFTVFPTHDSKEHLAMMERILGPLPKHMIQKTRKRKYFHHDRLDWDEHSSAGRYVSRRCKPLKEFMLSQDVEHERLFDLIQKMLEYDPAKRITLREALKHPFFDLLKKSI

SMILES	IC50 [1]	IC50 [2]	IC50 (Ephrin type-A receptor 2 [3])	IC50 (Aurora kinase A)	IC50 [4]	IC50 [5]	IC50 [6]	IC50 [7]	IC50 [8]	inhibition [13]	inhibition [14]	inhibition [15]	inhibition (Ephrin type-A receptor 2 [16])	inhibition [17]	inhibition [18]	inhibition [19]	inhibition [20]	inhibition [21]	inhibition [22]	also measured
O=C(CS(=O)(=O)c1ccc(Cl)cc1)N/N=C/c1cc(C(=O)O)c(Nc2ccc(I)cc2F)c(F)c1F	4 µM	> 30 µM	> 30 µM	4 µM	> 30 µM	3 µM	> 30 µM	10 µM	3 µM											IC50 [9]: > 30 µM
O=C(N/N=C/c1cc(C(=O)O)c(Nc2ccc(I)cc2F)c(F)c1F)c1ccc(CO)o1	0.3 µM	2 µM	3 µM	3 µM	3 µM	15 µM	> 30 µM	5 µM	0.1 µM											IC50 [10]: 4 µM; IC50 [11]: > 30 µM
CS(=O)(=O)c1ccc(CNCc2cc(C(=O)O)c(Nc3ccc(I)cc3F)c(F)c2F)cc1	> 30 µM	> 30 µM	> 30 µM	1 µM	18 µM	> 30 µM	> 30 µM	> 30 µM	> 30 µM											IC50 [10]: 5 µM; IC50 [12]: > 30 µM; IC50 [9]: > 30 µM
NC(=O)C[C@H](N)C(=O)NCc1cc(C(=O)O)c(Nc2ccc(I)cc2F)c(F)c1F	> 30 µM	> 30 µM	> 30 µM	2 µM	> 30 µM	> 30 µM	2 µM	> 30 µM	4 µM											IC50 [10]: > 30 µM; IC50 [12]: > 30 µM; IC50 [9]: > 30 µM; IC50 [11]: 6 µM
Cc1cc(I)ccc1Nc1c(C(=O)O)ccc(F)c1F																				IC50 [23]: 0.011 µM
O=C(O)c1ccc(F)c(F)c1Nc1ccc(I)cc1Cl [ZAPNOMETINIB]																				IC50 [23]: 0.00573 µM
O=C(NOCCO)c1ccc(F)c(F)c1Nc1ccc(I)cc1F										0%	0%	10%	9%	5%	14%	9%	11%	9%	2%	

More lines, main results first:

IC50 [1]	IC50 [2]	IC50 (Ephrin type-A receptor 2 [3])	IC50 (Aurora kinase A)	IC50 [4]	IC50 [5]	IC50 [6]	IC50 [7]	IC50 [8]	inhibition [13]	inhibition [14]	inhibition [15]	inhibition (Ephrin type-A receptor 2 [16])	inhibition [17]	inhibition [18]	inhibition [19]	inhibition [20]	inhibition [21]	inhibition [22]	SMILES	also measured
									60%	36%	28%	22%	19%	0%	28%	21%	27%	20%	O=C(O)c1ccc(CO/N=C/c2cc(C(=O)NOCCO)c(Nc3ccc(I)cc3F)c(F)c2F)o1	
									0%	16%	0%	7%	31%	0%	1%	0%	10%	0%	COCCCNC(=O)N/N=C/c1cc(C(=O)NOCCO)c(Nc2ccc(I)cc2F)c(F)c1F	
									0%	5%	0%	9%	1%	0%	2%	5%	1%	0%	O=C(NOCCO)c1cc(/C=N/OCCO)c(F)c(F)c1Nc1ccc(I)cc1F	
									39%	22%	33%	37%	4%	1%	18%	29%	25%	25%	O=C(O)CCCO/N=C/c1cc(C(=O)NOCCO)c(Nc2ccc(I)cc2F)c(F)c1F	
									0%	25%	22%	13%	5%	27%	5%	2%	0%	13%	O=C(NOCCO)c1cc(COCCO)c(F)c(F)c1Nc1ccc(I)cc1F	
